Data reported in US10851165B2, “Antibody molecules to PD-L1 and methods of treating cancer” (Novartis AG, priority 2014, dated 2020).
Each block holds one molecule with its values, some of them ahead of it.

Key:
[1] = system: PD-L1 (CD274) mRNA in UKE-1 tumors; assay: PD-L1 mRNA by TaqMan RT PCR in UKE-1 tumor xenograft model; details: tumor xenograft model bearing UKE-1 (MPN line with JAK2V617F mutation)
[2] = system: PD-L1 (CD274) mRNA in LOXIMV1 tumors; assay: PD-L1 mRNA by TaqMan RT PCR in LOXIMV1 tumor xenograft model; type: in vivo, human; details: tumor xenograft model bearing LOXIMV1 (BRAF mutant melanoma)
Protocol: (§1) Isolated RNA was frozen at −80° C.
(§2) Each sample was run in triplicate.

[3] = system: PD-L1 (CD274) in EBC-1 cells; assay: PD-L1 surface expression by flow cytometry in EBC-1 cells in vitro; type: cell-based, human; details: EBC-1 cells (NSCLC with cMET amplification) in vitro; 10 nM, 100 nM, 1000 nM; 24, 48 and 72 hours; vs DMSO
Protocol: EBC-1 cells are non-small cell lung cancer cells with a cMET amplification.
PD-L1 (CD274) expression was analyzed in cancer cell lines treated with Compound A17. Cells were obtained from ATCC and cultured in vitro following ATCC directions. The cell lines used were previously characterized by the Cancer Cell Line Encyclopedia Project (http://www.broadinstitute.org/ccle/home).
Cells plated in six-well culture plates were treated with the Compound A17 at different concentrations (10 nM, 100 nM, and 1000 nM) for 24, 48 and 72 hours. Equal amount of vehicle (DMSO) was used as a control. Cells were washed with PBS and then harvested using a cell scraper.
For each reaction, 0.5-1×10^6 cells were stained with 20 μL of anti-human monoclonal PD-L1-PE antibody, clone M1H1 (BD) for 30-60 minutes at 4° C. Cells were washed twice and data was acquired using a Canto II with FACSDiva software (BD Bioscience). Data analysis was performed using FlowJo software (Tree Star). Mean fluorescence intensity (MFI) was determined by gating on single cells. Unstained cells were used as a gating control.

[4] = system: PD-L1 (CD274) mRNA in Hs.746.T tumor; assay: PD-L1 mRNA by TaqMan RT PCR in Hs.746.T tumor xenograft; type: in vivo, human; details: Hs.746.T tumor (gastric cancer cell with cMET amplification & mutation) xenograft
Protocol: Hs.746.T cells are gastric cancer cells with a c-MET amplification and a c-MET mutation.
as §1, §2

[5] = system: PD-L1 (CD274) mRNA in H3122 cells; assay: PD-L1 mRNA by TaqMan RT PCR in H3122 cells in vitro; type: cell-based, human; details: H3122 (NSCLC with ALK translocation) in vitro
Protocol: H3122 cells are non-small cell lung cancer (NSCLC) cells with an ALK translocation.
as §1, §2

[6] = system: PD-L1 (CD274) mRNA in HEYA8 tumors; assay: PD-L1 mRNA by TaqMan RT PCR in HEYA8 tumor xenograft model; type: in vivo, human; details: tumor xenograft model bearing HEYA8 (KRAF mutant ovarian cancer)
Protocol: as §1, §2

huPD-L1 = target: T1, huPD-L1 (Homo sapiens, UniProt Q9NZQ7); assay: FACS binding of chimeric and humanized BAP058 mAbs to 300.19 cells expressing huPD-L1; details: 300.19 cell line expressing huPD-L1 on the cell surface
T1 construct: expressed in transfected cells; host or cells: 300.19 cells
T1 sequence (Q9NZQ7 19-290): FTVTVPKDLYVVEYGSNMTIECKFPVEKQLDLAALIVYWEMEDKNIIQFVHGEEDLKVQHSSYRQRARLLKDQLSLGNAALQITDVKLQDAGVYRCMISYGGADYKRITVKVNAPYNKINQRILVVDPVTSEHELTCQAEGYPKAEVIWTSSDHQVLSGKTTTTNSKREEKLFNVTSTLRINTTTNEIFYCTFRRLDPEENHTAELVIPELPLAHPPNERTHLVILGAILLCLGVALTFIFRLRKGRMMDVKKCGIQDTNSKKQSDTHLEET
Protocol: FIG. 3 is a bar graph showing the results of FACS binding analysis for the seventeen humanized BAP058 clones (BAP058-hum01 to BAP058-hum17). The antibody concentrations are 200, 100, 50, 25 and 12.5 ng/ml from the leftmost bar to the rightmost bar for each tested mAb.
Humanization of BAP058 was performed using a combinatorial library of human germline variable region frameworks (FWs). The technology entails transferring the murine CDRs in frame to a library of human variable regions (VRs) that had been constructed by randomly combining human germ line FW1, FW2 and FW3 sequences. Only one FW4 sequence was used, which is […] (SEQ ID NO: 154) for the heavy chain (HC) (Kabat human HC subgroup I, No. 21) and […] (SEQ ID NO: 186) for the light chain (LC) (Kabat human κ subgroup I, No. 5). The library of VR sequences was fused to human constant region (CR) sequences, human IgG4 (S228P) of HC and human κ CR of LC, and the resulting library of whole IgG mAbs was expressed in CHO cells for screening. Screening was performed with tissue culture supernatants measuring binding avidity on antigen-expressing cells in a whole cell ELISA format or on FACS.
Binding of the recombinant clone to human PD-L1 was tested using the 300.19 cell line expressing huPD-L1 on the cell surface and FACS analysis.

Molecule: N#CC[C@H](C1CCCC1)n1cc(-c2ncnc3[nH]ccc23)cn1 [Compound A18, Ruxolitinib Phosphate]
PD-L1 mRNA [1]: Downregulation of PD-L1 mRNA

Molecule: COC(=O)N[C@@H](C)CNc1nccc(-c2cn(C(C)C)nc2-c2cc(Cl)cc(NS(C)(=O)=O)c2F)n1 [Compound A29, Encorafenib]
PD-L1 mRNA [2]: Downregulation of PD-L1 mRNA

Molecule: CNC(=O)c1ccc(-c2cnc3ncc(Cc4ccc5ncccc5c4)n3n2)cc1F [Compound A17, 2-fluoro-N-methyl-4-(7-(quinolin-6-ylmethyl)imidazo[1,2-b][1,2,4]triazin-2-yl)benzamide]
surface expression of PD-L1 (flow cytometry) [3]: significant downregulation of surface expression of PD-L1
PD-L1 expression (mRNA) [4]: Inhibition of PD-L1 expression (mRNA)

Molecule: Cc1cc(Nc2ncc(Cl)c(Nc3ccccc3S(=O)(=O)C(C)C)n2)c(OC(C)C)cc1C1CCNCC1 [Compound A23, ceritinib]
PD-L1 mRNA [5]: Inhibition of PD-L1 mRNA

Molecule: Cn1cnc2c(F)c(Nc3ccc(Br)cc3F)c(C(=O)NOCCO)cc21 [Compound A34, Binimetinib]
PD-L1 mRNA [6]: Downregulation of PD-L1 mRNA

Binding to human PD-L1 (FACS analysis) (huPD-L1): bound well to the antigen
B1: BAP058-chi: chimeric mAb: murine VR, human IgG4 (S228P), human κ (antibody, V domains shown)
VH: EVQLQQSGAELVKPGASVKLSCKASGYTFTSYWMYWVKQGPGRGLEWIGRIDPNSGSTKYNEKFKNKATLTVDKSSSTAYMQLSSLTSEDSAVYYCARDYRKGLYAMDYWGQGTTVTVSS
VL: DIMMTQSHKFMSTSVGDRVSITCKASQDVGTAVAWYQQKPGQSPKLLIYWASTRHTGVPDRFTGSGSGTDFTLTISNVQSEDLADYFCQQYNSYPLTFGQGTKVEIK
